Reference: patent publication US20240382509A1, “Cannabinoids C- and O-glycosides possessing anti-proliferative and anti-metastatic properties and process for preparation thereof” (Council of Scientific and Industrial Research, priority 2021, published 2024)
Like-named read-outs stand apart in the source and are kept apart here.

Key:
Panc-1 cells [1] = test: MTT cell viability assay, Panc-1; type: cell-based; conditions: for IC50: pancreatic cancer cells
Experimental: (§1) Cell viability assay: The cell viability was determined by the standard MTT assay method. Briefly, Panc-1, HCT-116, A549, PC3, MIAPaca-2, HT-29, MDA-MB-231, MCF7 cells, and fR2cells were seeded in 96 well tissue culture plates (Nunc) at a density of 4×10^3 cells per well and treated with varying concentrations of the test compounds in triplicates. DMSO was taken as a vehicle, and its final concentration was maintained at 0.2% in the culture medium. Doxorubicin was employed as a positive control. After 44 h of incubation, MTT dye solution was added into the medium, and cells were incubated for another 4 h at 37° C. in 5% CO2. The amount of colored formazan derivatives formed was measured by taking optical density (OD) using a microplate reader (TECAN, Infinite M200 Pro) at 570 nm, and the percentage of cell viability was calculated. The IC50 values were calculated using GraphPad Prism software (Version 5.0).

MIAPaCa-2 cells [2] = test: MTT cell viability assay, MIAPaCa-2; type: cell-based, human
Experimental: as §1

HCT-116 cells = test: MTT cell viability assay, HCT-116; type: cell-based; conditions: for IC50: colorectal adenocarcinoma cells
Experimental: as §1

[3] = tested on: human colorectal adenocarcinoma cell line (HT-29); test: MTT cell viability assay, HT-29; type: cell-based; conditions: for IC50: human colorectal adenocarcinoma cell line
Experimental: as §1

[4] = tested on: lung adenocarcinoma cells (A549); test: MTT cell viability assay, A549; type: cell-based
Experimental: as §1

PC3 cells = test: MTT cell viability assay, PC3; type: cell-based
Experimental: as §1

MCF-7 cells = test: MTT cell viability assay, MCF-7; type: cell-based; conditions: breast cancer cell of epithelial origin
Experimental: as §1

Panc-1 cells [5] = test: Colony formation assay; type: cell-based; conditions: Panc-1, 1000 cells/well, 5 days, compared to corresponding parent compounds
Experimental: Colony formation assay. […] cells were seeded onto 6 well plates with a seeding density of 1000 cells/well. The cells after attachment were treated with 2 (2a, 2b), 3 (3a, 3b), 4 (4a, 4b) along with DMSO as a vehicle control and incubated for 5-6 days. After incubation, the plates were washed with ice-cold PBS, and the cells were fixed with methanol for 5 min. After fixing. the cells were stained with 0.2% crystal violet stain for 1 h. The cells were then washed with distilled water to remove the stain and were observed under an inverted microscope at 20× magnification.
The anti-proliferative properties of glycosidic derivatives were further analysed by colony formation assay in pancreatic cancer cells. The novel C-glycosidic derivatives of compounds 1, 2, 3 and 4 viz 1b, 2b, 3b & 4b display anti-proliferative property (FIG. 2). Panc-1cells were seeded onto 6 well plates at seeding density 1000 cells/well and treated with indicated concentration of 1b, 2b, 3b and 4b derivatives along with their parent compounds and DMSO as vehicle for 5 days. Upon termination the cells were stained with crystal violet and images of field were photographed.

MIAPaCa-2 cells [6] = test: Cell scatter assay; type: cell-based, human; conditions: MIAPaCa-2, 1, 2, 3 μM, 36 h, compared to vehicle and parent molecule
Experimental: Cell scatter assay MIAPaCa-2 cells were seeded onto a 12 well plate at a seeding density of 500 cells/well and kept for 4-5 days, and there was the formation of scatter colonies since the cell line itself is a metastatic cell line. Accordingly, they were treated with 1 μM, 2 μM & 3 μM of compound 2, 2a, 2b, 3, 3a, 4, 4a & 4b for 36 h, and upon termination, they were washed with PBS and observed under an inverted microscope at 20× magnification (FIG. 3).

[7] = MTT cell viability assay, fR2 normal epithelial cells; type: cell-based, human; conditions: human, fR2 normal epithelial cells; MTT, 48 h; normal epithelial cell line; read-out: Cytotoxicity (IC50) fR2
Experimental: as §1

[8] = tested on: 4T1 mouse mammary carcinoma cells; test: 4T1 allograft breast cancer model, anti-tumor and anti-metastatic efficacy; type: in vivo; conditions: tumor lysate immunoblot, 30 mg/kg
Experimental: In vivo anti-metastatic and anti-tumor efficacy studies. 4T1 mouse mammary carcinoma cells is a highly aggressive cell line that forms tumors when grafted in Balb/c mice. […] All the in vivo experimental protocols were approved by the Institutional Animal Ethics Committee, CPCSEA, of the Indian Institute of Integrative Medicine, Jammu. The animals were maintained at 22° C. with a 12 h light-dark cycle and free access to feed and water inside the institutional animal house. Proper care was taken to maintain them in a healthy condition and to avoid any risk of possible pathogenic contaminations. For subcutaneous implantation of 4T1 cells, the Balb/c mice were distributed into four groups bearing five mice in each group. For tumor induction, 1.5 million 4T1 cells were suspended in serum-free media and injected into the mammary pad of the animal and kept in the animal house for tumor induction. After the tumor reached an adequate size (30-150 mm^3) the mice in the allotted groups were treated with vehicle (normal saline), 15 and 30 mg/kg 2a & 30 mg/kg DIM (positive control) for every alternate day and was continued for two weeks. After the treatment, the mice were sacrificed by cervical dislocation, and the tumor was dissected out from the mammary pad, the tumor volume was measured, and images were taken. Subsequently, to examine the anti-metastatic property of the compound 2a, the chest cavity was dissected to remove the lungs, and after washing with PBS, the metastatic nodules in the lung due to 4T1 migration were checked and subsequently counted.
The anti-proliferative as well as anti-metastatic role of compound 2a was studied in 4T1 allograft breast cancer model. Briefly, 1.5×10^6 4T1 mammary breast cancer cells were injected in mouse mammary pad and kept undisturbed until the formation of tumor. Subsequently, the mice were treated with 15 and 30 mg/kg of compound 2a along with a positive control 30 mg/kg di-indoyl methane (DIM) molecule and normal saline as vehicle. The drugs were administered intraperitonially for each alternate day for 2 weeks. The animals were sacrificed and tumours were harvested from the mammary pad and tumor weight was measured (FIG. 7a & b). Moreover, the lungs were also removed and photographed to study the presence of metastatic patches. […] Furthermore, the tumors were subjected to tissue lysis and immunoblot analysis was performed to study the expression of Snail-1. Twist-1, STAT-3, Vimentin and E-cadherin.

[9] = MTT, 48 h, read-out: Cytotoxicity (IC50) Panc-1
[10] = MTT, 48 h, read-out: Cytotoxicity (IC50) MIAPaCa-2
[11] = MTT, 48 h, read-out: Cytotoxicity (IC50) HCT-116
[12] = MTT, 48 h, read-out: Cytotoxicity (IC50) HT-29
[13] = MTT, 48 h, read-out: Cytotoxicity (IC50) A549
[14] = MTT, 48 h, read-out: Cytotoxicity (IC50) PC3
[15] = MTT, 48 h, read-out: Cytotoxicity (IC50) MCF-7
[16] = Homo sapiens, PANC-1, 48 h, MTT, 48 h, read-out: Cytotoxicity (IC50) Panc-1
[17] = Homo sapiens, MIA PaCa-2, 48 h, MTT, 48 h, read-out: Cytotoxicity (IC50) MIAPaCa-2
[18] = Homo sapiens, HCT-116, 48 h, MTT, 48 h, read-out: Cytotoxicity (IC50) HCT-116
[19] = Homo sapiens, HT-29, 48 h, MTT, 48 h, read-out: Cytotoxicity (IC50) HT-29
[20] = Homo sapiens, A549, 48 h, MTT, 48 h, read-out: Cytotoxicity (IC50) A549
[21] = Homo sapiens, PC-3, 48 h, MTT, 48 h, read-out: Cytotoxicity (IC50) PC3
[22] = Homo sapiens, MCF7, 48 h, MTT, 48 h, read-out: Cytotoxicity (IC50) MCF-7

SMILES	IC50 (Panc-1 cells [1]; [9]) [µM]	IC50 (MIAPaCa-2 cells [2]; [10]) [µM]	IC50 (HCT-116 cells; [11]) [µM]	IC50 [3, 12] [µM]	IC50 [4, 13] [µM]	IC50 (PC3 cells; [14]) [µM]	IC50 (MCF-7 cells; [15]) [µM]	IC50 (Panc-1 cells [1]; [16]) [µM]	IC50 (MIAPaCa-2 cells [2]; [17]) [µM]	IC50 (HCT-116 cells; [18]) [µM]	IC50 [3, 19] [µM]	IC50 [4, 20] [µM]	IC50 (PC3 cells; [21]) [µM]	IC50 (MCF-7 cells; [22]) [µM]	anti-proliferative potential in colony formation assay (Panc-1 cells [5])	cell scattering (MIAPaCa-2 cells [6])	further results
CCCCCc1cc(O)c2c(c1)OC(C)(C)[C@@H]1CCC(C)=C[C@@H]21 [Compound 2, Δ^9-tetrahydrocannabinol, reference compound]	21.1	4.47	19	> 100	11.7	> 100	43	–	–	–	–	–	–	–	–	–	–
CCCCCc1cc2c(c(O)c1[C@@H]1OC(CO)[C@@H](O)C(O)C1O)[C@@H]1C=C(C)CC[C@H]1C(C)(C)O2 (stereo partly drawn) [Compound 2b, Δ^9-tetrahydrocannabinol-2-C-β-D-glucopyranoside]	–	–	–	–	–	–	–	3.16	1.59	43.2	10.8	1.32	28	7.4	strong anti-proliferative potential	typical clumping of scatter cells	fold activity compared to parent compound, pancreatic cancer cells (Panc-1 cells [1]; ratio of IC50 parent vs derivative, Panc-1): 6.6 fold; fold anti-proliferative activity compared to parent compound, HT-29 ([3]; ratio of IC50 parent 2 vs derivative): more than 10 fold
CCCCCc1cc(O)c2c(c1)OC(C)(C)[C@@H]1CC=C(C)C[C@@H]21 [Compound 3, Δ^8-tetrahydrocannabinol, reference compound]	50.9	2.46	27.3	> 100	11.6	28	26.7	–	–	–	–	–	–	–	–	–	–
CCCCCc1cc(O[C@@H]2OC(CO)[C@@H](O)C(O)C2O)c2c(c1)OC(C)(C)c1ccc(C)cc1-2 (stereo partly drawn) [Compound 4a, Cannabinol-1-O-β-D-glucopyranoside]	–	–	–	–	–	–	–	–	–	–	–	–	–	–	–	typical clumping of scatter cells	IC50 (Panc-1 cells [1]; Homo sapiens, PANC-1, 48 h, read-out: Cytotoxicity (IC50) Panc-1, MTT, 48 h): 3.16 µM; IC50 (MIAPaCa-2 cells [2]; Homo sapiens, MIA PaCa-2, 48 h, read-out: Cytotoxicity (IC50) MIAPaCa-2, MTT, 48 h): 2.58 µM; IC50 (HCT-116 cells; Homo sapiens, HCT-116, 48 h, read-out: Cytotoxicity (IC50) HCT-116, MTT, 48 h): 2.98 µM; IC50 ([3]; Homo sapiens, HT-29, 48 h, read-out: Cytotoxicity (IC50) HT-29, MTT, 48 h): 3.53 µM; IC50 ([4]; Homo sapiens, A549, 48 h, read-out: Cytotoxicity (IC50) A549, MTT, 48 h): 3.01 µM; IC50 (PC3 cells; Homo sapiens, PC-3, 48 h, read-out: Cytotoxicity (IC50) PC3, MTT, 48 h): 51.4 µM; IC50 (MCF-7 cells; Homo sapiens, MCF7, 48 h, read-out: Cytotoxicity (IC50) MCF-7, MTT, 48 h): 7.74 µM; IC50 at 48 h [7]: > 100 µM
CCCCCc1cc2c(c(O)c1[C@@H]1OC(CO)[C@@H](O)C(O)C1O)-c1cc(C)ccc1C(C)(C)O2 (stereo partly drawn) [Compound 4b, Cannabinol-2-C-β-D-glucopyranoside]	–	–	–	–	–	–	–	13.9	8.31	3	11.5	22.6	39	43.1	strong anti-proliferative potential	typical clumping of scatter cells	fold anti-proliferative activity compared to parent compound, HCT-116 (HCT-116 cells; ratio of IC50 parent 4 vs derivative): > 15 fold
c1ccc2c(Cc3c[nH]c4ccccc34)c[nH]c2c1 [DIM, di-indoyl methane, reference compound]	–	–	–	–	–	–	–	–	–	–	–	–	–	–	–	–	tumor expression of Snail-1, STAT-3 and Vimentin (positive control) [8]: decreases significantly
